In the kinase profiling compilation of Christmann-Franck et al. (2016):

Assays:
Assay in all cases: radiometric filter-binding kinase assay
[1] = molecular target: PIM3 (human) (UniProt Q86V86)
[2] = molecular target: MAPK11 (human) (UniProt Q15759)
[3] = molecular target: YES1 (human) (UniProt P07947)
[4] = molecular target: MINK1 (human) (UniProt Q8N4C8)
[5] = molecular target: FGFR1 (human) (UniProt P11362)
[6] = molecular target: MKNK1 (human) (UniProt Q9BUB5)
[7] = molecular target: SRPK1 (human) (UniProt Q96SB4)
[8] = molecular target: MAPKAPK5 (human) (UniProt Q8IW41)
[9] = molecular target: MARK3 (human) (UniProt P27448)
[10] = molecular target: AURKB (human) (UniProt Q96GD4)
[11] = system: LCK (mouse); details: accession and sequence are those of the human protein
[12] = molecular target: CSNK2A1 (human) (UniProt P68400)
[13] = molecular target: STK3 (human) (UniProt Q13188)
[14] = molecular target: TAOK1 (human) (UniProt Q7L7X3)
[15] = molecular target: MAPK10 (human) (UniProt P53779)
[16] = molecular target: CLK2 (human) (UniProt P49760)
[17] = molecular target: MAPK8 (human) (UniProt P45983)
[18] = system: PAK2 (human), Q13177 [T402E]
[19] = molecular target: GCK (human) (UniProt Q12851)
[20] = molecular target: EPHB2 (human) (UniProt P29323)
[21] = molecular target: PHKG1 (human) (UniProt Q16816)
[22] = molecular target: CaMK1 (human) (UniProt Q14012)
[23] = molecular target: MAPK13 (human) (UniProt O15264)
[24] = molecular target: CHEK1 (human) (UniProt O14757)
[25] = molecular target: CAMKK2 (human) (UniProt Q96RR4)
[26] = system: SGK1 (human), O00141 [S422D]
[27] = molecular target: IGF1R (human) (UniProt P08069)
[28] = molecular target: HIPK1 (human) (UniProt Q86Z02)
[29] = molecular target: DYRK3 (human) (UniProt O43781)
[30] = molecular target: DYRK1A (human) (UniProt Q13627)
[31] = system: ROCK2 (rat); details: accession and sequence are those of the human protein
[32] = molecular target: DAPK1 (human) (UniProt P53355)
[33] = molecular target: TBK1 (human) (UniProt Q9UHD2)
[34] = molecular target: HIPK2 (human) (UniProt Q9H2X6)
[35] = molecular target: JAK2 JH1 JH2 (human) (UniProt O60674)
[36] = molecular target: BRSK2 (human) (UniProt Q8IWQ3)

Sequence of TBK1 (human) (Q9UHD2 whole entry, looked up): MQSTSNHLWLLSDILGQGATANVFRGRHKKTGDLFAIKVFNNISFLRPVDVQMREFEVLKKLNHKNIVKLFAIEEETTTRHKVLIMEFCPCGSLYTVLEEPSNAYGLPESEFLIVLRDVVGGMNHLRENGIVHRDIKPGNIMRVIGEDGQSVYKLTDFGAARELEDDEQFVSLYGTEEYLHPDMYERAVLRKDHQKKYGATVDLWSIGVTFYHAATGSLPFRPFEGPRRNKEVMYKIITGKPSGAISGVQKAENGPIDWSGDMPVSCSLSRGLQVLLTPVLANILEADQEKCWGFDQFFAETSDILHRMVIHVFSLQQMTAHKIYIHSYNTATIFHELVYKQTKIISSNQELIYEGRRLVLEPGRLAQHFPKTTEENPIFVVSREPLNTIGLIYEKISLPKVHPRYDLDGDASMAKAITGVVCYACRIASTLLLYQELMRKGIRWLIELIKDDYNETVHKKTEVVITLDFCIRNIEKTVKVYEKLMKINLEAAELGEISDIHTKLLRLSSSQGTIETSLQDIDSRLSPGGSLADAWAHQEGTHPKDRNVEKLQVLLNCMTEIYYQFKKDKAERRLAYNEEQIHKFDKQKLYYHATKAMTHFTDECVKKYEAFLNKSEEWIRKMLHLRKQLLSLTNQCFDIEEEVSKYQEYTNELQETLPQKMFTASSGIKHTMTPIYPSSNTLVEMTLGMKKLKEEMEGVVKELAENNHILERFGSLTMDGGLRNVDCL
Sequence of FGFR1 (human) (P11362 whole entry, looked up): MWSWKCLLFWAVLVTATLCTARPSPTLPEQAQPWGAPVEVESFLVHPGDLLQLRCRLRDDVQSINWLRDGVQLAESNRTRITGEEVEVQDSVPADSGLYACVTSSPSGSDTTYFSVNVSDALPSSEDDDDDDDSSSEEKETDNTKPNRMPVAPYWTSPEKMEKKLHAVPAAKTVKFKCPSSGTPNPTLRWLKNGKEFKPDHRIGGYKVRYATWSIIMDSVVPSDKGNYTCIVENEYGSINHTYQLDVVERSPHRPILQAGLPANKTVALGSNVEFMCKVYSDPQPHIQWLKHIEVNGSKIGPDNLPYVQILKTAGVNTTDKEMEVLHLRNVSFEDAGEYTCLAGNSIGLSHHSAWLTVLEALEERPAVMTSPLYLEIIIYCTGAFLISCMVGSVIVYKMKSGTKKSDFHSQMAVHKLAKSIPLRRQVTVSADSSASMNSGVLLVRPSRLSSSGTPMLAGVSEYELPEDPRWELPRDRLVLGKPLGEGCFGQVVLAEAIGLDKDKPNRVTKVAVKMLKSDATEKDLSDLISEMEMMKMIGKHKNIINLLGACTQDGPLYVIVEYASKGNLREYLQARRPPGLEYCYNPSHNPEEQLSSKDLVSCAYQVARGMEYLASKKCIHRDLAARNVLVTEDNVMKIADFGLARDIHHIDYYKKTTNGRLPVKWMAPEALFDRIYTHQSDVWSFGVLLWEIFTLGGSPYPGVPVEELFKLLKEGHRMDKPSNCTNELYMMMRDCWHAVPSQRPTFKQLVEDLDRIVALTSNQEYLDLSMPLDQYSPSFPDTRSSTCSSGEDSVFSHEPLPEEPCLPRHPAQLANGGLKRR
Sequence of CLK2 (human) (P49760 whole entry, looked up): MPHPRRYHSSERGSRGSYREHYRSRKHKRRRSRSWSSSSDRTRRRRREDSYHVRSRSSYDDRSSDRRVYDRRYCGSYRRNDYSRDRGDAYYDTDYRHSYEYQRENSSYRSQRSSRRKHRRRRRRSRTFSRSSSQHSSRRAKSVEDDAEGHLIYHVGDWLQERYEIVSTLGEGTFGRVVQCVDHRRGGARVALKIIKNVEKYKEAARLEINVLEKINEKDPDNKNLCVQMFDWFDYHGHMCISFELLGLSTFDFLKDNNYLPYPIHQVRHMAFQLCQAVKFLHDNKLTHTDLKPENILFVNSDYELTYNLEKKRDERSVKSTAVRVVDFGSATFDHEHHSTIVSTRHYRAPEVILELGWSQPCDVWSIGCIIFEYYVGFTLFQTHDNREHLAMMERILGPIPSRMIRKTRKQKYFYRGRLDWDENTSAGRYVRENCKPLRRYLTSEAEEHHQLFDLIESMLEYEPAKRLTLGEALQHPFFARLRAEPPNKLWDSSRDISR
Sequence of SRPK1 (human) (Q96SB4 whole entry, looked up): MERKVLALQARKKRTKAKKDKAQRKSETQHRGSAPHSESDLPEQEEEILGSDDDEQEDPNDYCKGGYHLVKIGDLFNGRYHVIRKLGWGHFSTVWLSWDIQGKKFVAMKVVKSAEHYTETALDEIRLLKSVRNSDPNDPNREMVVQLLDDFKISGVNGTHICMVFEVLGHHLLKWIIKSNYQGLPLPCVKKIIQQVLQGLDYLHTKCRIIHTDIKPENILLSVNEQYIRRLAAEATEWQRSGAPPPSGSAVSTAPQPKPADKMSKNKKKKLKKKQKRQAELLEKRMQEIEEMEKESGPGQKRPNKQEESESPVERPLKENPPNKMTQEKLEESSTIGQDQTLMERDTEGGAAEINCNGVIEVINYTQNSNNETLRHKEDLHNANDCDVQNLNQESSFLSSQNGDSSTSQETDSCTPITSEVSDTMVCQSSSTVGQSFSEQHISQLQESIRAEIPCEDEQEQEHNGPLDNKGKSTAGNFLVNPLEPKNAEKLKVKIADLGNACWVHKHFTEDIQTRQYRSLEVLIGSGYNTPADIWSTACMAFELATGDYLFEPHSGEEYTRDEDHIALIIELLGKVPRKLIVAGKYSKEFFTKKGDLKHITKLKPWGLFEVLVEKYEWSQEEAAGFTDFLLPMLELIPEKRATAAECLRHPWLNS
Sequence of CSNK2A1 (human) (P68400 whole entry, looked up): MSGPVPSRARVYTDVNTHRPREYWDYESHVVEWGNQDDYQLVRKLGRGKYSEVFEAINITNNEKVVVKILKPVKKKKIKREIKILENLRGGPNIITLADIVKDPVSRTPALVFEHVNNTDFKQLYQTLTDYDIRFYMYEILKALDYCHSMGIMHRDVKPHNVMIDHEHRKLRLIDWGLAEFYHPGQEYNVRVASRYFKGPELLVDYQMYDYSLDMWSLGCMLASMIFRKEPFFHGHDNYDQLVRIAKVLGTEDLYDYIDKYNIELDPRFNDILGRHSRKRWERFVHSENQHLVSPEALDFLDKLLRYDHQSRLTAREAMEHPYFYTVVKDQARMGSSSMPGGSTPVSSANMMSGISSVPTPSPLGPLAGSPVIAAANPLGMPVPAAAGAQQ
Sequence of YES1 (human) (P07947 whole entry, looked up): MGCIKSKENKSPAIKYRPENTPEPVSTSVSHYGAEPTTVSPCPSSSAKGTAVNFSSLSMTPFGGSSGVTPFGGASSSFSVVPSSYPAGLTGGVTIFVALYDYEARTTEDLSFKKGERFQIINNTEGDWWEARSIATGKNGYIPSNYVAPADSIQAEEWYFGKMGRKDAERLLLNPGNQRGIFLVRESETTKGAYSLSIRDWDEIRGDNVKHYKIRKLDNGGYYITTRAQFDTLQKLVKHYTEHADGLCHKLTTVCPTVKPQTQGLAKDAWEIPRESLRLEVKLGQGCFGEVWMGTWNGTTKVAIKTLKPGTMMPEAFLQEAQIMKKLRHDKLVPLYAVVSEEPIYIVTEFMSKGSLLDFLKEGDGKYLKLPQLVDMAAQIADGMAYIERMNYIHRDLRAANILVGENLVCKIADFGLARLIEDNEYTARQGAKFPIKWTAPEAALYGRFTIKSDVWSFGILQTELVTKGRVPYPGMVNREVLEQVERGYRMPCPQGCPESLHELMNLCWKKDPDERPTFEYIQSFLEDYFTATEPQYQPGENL
Sequence of CAMKK2 (human) (Q96RR4 whole entry, looked up): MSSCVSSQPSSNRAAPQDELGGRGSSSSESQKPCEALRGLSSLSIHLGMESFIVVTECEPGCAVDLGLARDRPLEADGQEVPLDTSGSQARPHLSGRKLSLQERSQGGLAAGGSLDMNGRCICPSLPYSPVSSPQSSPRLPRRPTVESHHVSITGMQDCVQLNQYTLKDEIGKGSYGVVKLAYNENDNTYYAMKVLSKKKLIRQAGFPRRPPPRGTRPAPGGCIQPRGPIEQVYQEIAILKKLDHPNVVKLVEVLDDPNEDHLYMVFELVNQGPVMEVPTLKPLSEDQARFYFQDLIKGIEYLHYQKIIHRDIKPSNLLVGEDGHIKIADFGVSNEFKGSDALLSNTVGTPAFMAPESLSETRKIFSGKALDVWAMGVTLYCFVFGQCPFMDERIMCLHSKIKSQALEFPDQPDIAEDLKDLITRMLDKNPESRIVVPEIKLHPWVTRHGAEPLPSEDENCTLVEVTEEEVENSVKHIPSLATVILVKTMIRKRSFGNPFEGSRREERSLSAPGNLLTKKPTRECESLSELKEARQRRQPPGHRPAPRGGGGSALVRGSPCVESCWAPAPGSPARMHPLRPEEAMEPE
Sequence of MKNK1 (human) (Q9BUB5 whole entry, looked up): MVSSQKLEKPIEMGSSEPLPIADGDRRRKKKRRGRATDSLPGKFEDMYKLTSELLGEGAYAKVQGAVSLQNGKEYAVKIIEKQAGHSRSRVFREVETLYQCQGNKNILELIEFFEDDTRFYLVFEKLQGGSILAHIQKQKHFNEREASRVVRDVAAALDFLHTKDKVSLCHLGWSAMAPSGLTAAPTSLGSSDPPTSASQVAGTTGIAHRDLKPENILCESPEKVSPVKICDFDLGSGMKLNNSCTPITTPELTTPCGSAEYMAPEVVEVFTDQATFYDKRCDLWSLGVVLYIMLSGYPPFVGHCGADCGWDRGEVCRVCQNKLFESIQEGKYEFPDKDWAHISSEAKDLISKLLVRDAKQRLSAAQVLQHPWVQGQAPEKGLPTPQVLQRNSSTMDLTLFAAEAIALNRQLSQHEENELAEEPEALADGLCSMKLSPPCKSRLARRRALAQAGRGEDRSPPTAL

CCCC(CCC)C(=O)O
residual activity ([1]; compound 10.0 µM): 97% | residual activity ([1]; compound 50.0 µM): 95% | residual activity ([2]; compound 1.0 µM): 82% | residual activity ([2]; compound 10.0 µM): 91% | residual activity ([2]; compound 50.0 µM): 106% | residual activity ([3]; compound 10.0 µM): 91% | residual activity ([3]; compound 50.0 µM): 102% | residual activity ([4]; compound 10.0 µM): 68% | residual activity ([4]; compound 50.0 µM): 76% | residual activity ([5]; compound 10.0 µM): 104% | residual activity ([5]; compound 50.0 µM): 104% | residual activity ([6]; compound 1.0 µM): 86% | residual activity ([6]; compound 10.0 µM): 112% | residual activity ([7]; compound 1.0 µM): 94% | residual activity ([7]; compound 10.0 µM): 107% | residual activity ([7]; compound 50.0 µM): 108% | residual activity ([8]; compound 1.0 µM): 92% | residual activity ([8]; compound 10.0 µM): 91% | residual activity ([8]; compound 50.0 µM): 88% | residual activity ([9]; compound 1.0 µM): 100% | residual activity ([9]; compound 10.0 µM): 108% | residual activity ([10]; compound 1.0 µM): 90% | residual activity ([10]; compound 10.0 µM): 99% | residual activity ([10]; compound 50.0 µM): 83% | residual activity ([11]; compound 1.0 µM): 84% | residual activity ([11]; compound 50.0 µM): 106% | residual activity ([12]; compound 10.0 µM): 86% | residual activity ([12]; compound 50.0 µM): 86% | residual activity ([13]; compound 1.0 µM): 90% | residual activity ([13]; compound 10.0 µM): 88% | residual activity ([13]; compound 50.0 µM): 87% | residual activity ([14]; compound 10.0 µM): 93% | residual activity ([14]; compound 50.0 µM): 89% | residual activity ([15]; compound 1.0 µM): 88% | residual activity ([15]; compound 10.0 µM): 85% | residual activity ([15]; compound 50.0 µM): 89% | residual activity ([16]; compound 10.0 µM): 90% | residual activity ([16]; compound 50.0 µM): 86% | residual activity ([17]; compound 1.0 µM): 86% | residual activity ([17]; compound 10.0 µM): 95% | residual activity ([17]; compound 50.0 µM): 92% | residual activity ([18]; compound 10.0 µM): 86% | residual activity ([18]; compound 50.0 µM): 91% | residual activity ([19]; compound 10.0 µM): 87% | residual activity ([19]; compound 50.0 µM): 98% | residual activity ([20]; compound 10.0 µM): 106% | residual activity ([20]; compound 50.0 µM): 126% | residual activity ([21]; compound 1.0 µM): 110% | residual activity ([21]; compound 10.0 µM): 89% | residual activity ([21]; compound 50.0 µM): 81% | residual activity ([22]; compound 1.0 µM): 89% | residual activity ([22]; compound 10.0 µM): 107% | residual activity ([22]; compound 50.0 µM): 101% | residual activity ([23]; compound 1.0 µM): 106% | residual activity ([23]; compound 10.0 µM): 95% | residual activity ([23]; compound 50.0 µM): 92% | residual activity ([24]; compound 1.0 µM): 82% | residual activity ([24]; compound 10.0 µM): 95% | residual activity ([24]; compound 50.0 µM): 95% | residual activity ([25]; compound 10.0 µM): 98% | residual activity ([25]; compound 50.0 µM): 104% | residual activity ([26]; compound 1.0 µM): 89% | residual activity ([26]; compound 10.0 µM): 98% | residual activity ([27]; compound 10.0 µM): 76% | residual activity ([27]; compound 50.0 µM): 56% | residual activity ([28]; compound 10.0 µM): 84% | residual activity ([28]; compound 50.0 µM): 94% | residual activity ([29]; compound 10.0 µM): 87% | residual activity ([29]; compound 50.0 µM): 91% | residual activity ([30]; compound 1.0 µM): 98% | residual activity ([30]; compound 50.0 µM): 89% | residual activity ([31]; compound 1.0 µM): 84% | residual activity ([31]; compound 10.0 µM): 97% | residual activity ([31]; compound 50.0 µM): 89% | residual activity ([32]; compound 10.0 µM): 97% | residual activity ([32]; compound 50.0 µM): 94% | residual activity ([33]; compound 10.0 µM): 99% | residual activity ([33]; compound 50.0 µM): 97% | residual activity ([34]; compound 10.0 µM): 86% | residual activity ([34]; compound 50.0 µM): 92% | residual activity ([35]; compound 10.0 µM): 80% | residual activity ([35]; compound 50.0 µM): 86%

NS(=O)(=O)OC[C@@H]1C[C@@H](n2ccc3c(N[C@H]4CCc5ccccc54)ncnc32)C[C@@H]1O
residual activity ([1]; compound 10.0 µM): 78% | residual activity ([2]; compound 1.0 µM): 95% | residual activity ([2]; compound 10.0 µM): 98% | residual activity ([3]; compound 10.0 µM): 79% | residual activity ([4]; compound 1.0 µM): 93% | residual activity ([4]; compound 10.0 µM): 96% | residual activity ([5]; compound 10.0 µM): 126% | residual activity ([6]; compound 1.0 µM): 104% | residual activity ([6]; compound 10.0 µM): 92% | residual activity ([7]; compound 1.0 µM): 92% | residual activity ([7]; compound 10.0 µM): 102% | residual activity ([9]; compound 1.0 µM): 101% | residual activity ([9]; compound 10.0 µM): 100% | residual activity ([10]; compound 10.0 µM): 93% | residual activity ([11]; compound 1.0 µM): 98% | residual activity ([11]; compound 10.0 µM): 110% | residual activity ([12]; compound 1.0 µM): 80% | residual activity ([12]; compound 10.0 µM): 88% | residual activity ([13]; compound 1.0 µM): 87% | residual activity ([13]; compound 10.0 µM): 84% | residual activity ([14]; compound 1.0 µM): 104% | residual activity ([14]; compound 10.0 µM): 100% | residual activity ([15]; compound 1.0 µM): 81% | residual activity ([15]; compound 10.0 µM): 82% | residual activity ([16]; compound 1.0 µM): 127% | residual activity ([17]; compound 1.0 µM): 84% | residual activity ([17]; compound 10.0 µM): 97% | residual activity ([18]; compound 1.0 µM): 98% | residual activity ([18]; compound 10.0 µM): 93% | residual activity ([19]; compound 1.0 µM): 91% | residual activity ([19]; compound 10.0 µM): 88% | residual activity ([20]; compound 1.0 µM): 107% | residual activity ([20]; compound 10.0 µM): 109% | residual activity ([21]; compound 1.0 µM): 109% | residual activity ([21]; compound 10.0 µM): 106% | residual activity ([22]; compound 1.0 µM): 114% | residual activity ([22]; compound 10.0 µM): 110% | residual activity ([23]; compound 1.0 µM): 92% | residual activity ([23]; compound 10.0 µM): 90% | residual activity ([24]; compound 1.0 µM): 91% | residual activity ([24]; compound 10.0 µM): 98% | residual activity ([25]; compound 1.0 µM): 96% | residual activity ([25]; compound 10.0 µM): 108% | residual activity ([36]; compound 1.0 µM): 92% | residual activity ([36]; compound 10.0 µM): 86% | residual activity ([26]; compound 1.0 µM): 95% | residual activity ([26]; compound 10.0 µM): 112% | residual activity ([27]; compound 1.0 µM): 94% | residual activity ([27]; compound 10.0 µM): 88% | residual activity ([28]; compound 1.0 µM): 98% | residual activity ([29]; compound 10.0 µM): 84% | residual activity ([30]; compound 1.0 µM): 96% | residual activity ([30]; compound 10.0 µM): 103% | residual activity ([31]; compound 10.0 µM): 81% | residual activity ([32]; compound 1.0 µM): 110% | residual activity ([32]; compound 10.0 µM): 113% | residual activity ([33]; compound 10.0 µM): 88% | residual activity ([34]; compound 1.0 µM): 88% | residual activity ([34]; compound 10.0 µM): 97% | residual activity ([35]; compound 1.0 µM): 89% | residual activity ([35]; compound 10.0 µM): 93%
